Measured values published in PMC2884290 (Neuropsychopharmacology : official publication of the …, 2009).
Read-outs that look alike come from different tables or passages of the source.

Assays:
mGluR5 [1] = molecular target: T1, mGluR5 (Rattus norvegicus, UniProt P31424); type: cell-based
mGluR5 [2] = molecular target: T1, mGluR5; assay: PI hydrolysis in rat hippocampal slices

T1 sequence (P31424 21-1203): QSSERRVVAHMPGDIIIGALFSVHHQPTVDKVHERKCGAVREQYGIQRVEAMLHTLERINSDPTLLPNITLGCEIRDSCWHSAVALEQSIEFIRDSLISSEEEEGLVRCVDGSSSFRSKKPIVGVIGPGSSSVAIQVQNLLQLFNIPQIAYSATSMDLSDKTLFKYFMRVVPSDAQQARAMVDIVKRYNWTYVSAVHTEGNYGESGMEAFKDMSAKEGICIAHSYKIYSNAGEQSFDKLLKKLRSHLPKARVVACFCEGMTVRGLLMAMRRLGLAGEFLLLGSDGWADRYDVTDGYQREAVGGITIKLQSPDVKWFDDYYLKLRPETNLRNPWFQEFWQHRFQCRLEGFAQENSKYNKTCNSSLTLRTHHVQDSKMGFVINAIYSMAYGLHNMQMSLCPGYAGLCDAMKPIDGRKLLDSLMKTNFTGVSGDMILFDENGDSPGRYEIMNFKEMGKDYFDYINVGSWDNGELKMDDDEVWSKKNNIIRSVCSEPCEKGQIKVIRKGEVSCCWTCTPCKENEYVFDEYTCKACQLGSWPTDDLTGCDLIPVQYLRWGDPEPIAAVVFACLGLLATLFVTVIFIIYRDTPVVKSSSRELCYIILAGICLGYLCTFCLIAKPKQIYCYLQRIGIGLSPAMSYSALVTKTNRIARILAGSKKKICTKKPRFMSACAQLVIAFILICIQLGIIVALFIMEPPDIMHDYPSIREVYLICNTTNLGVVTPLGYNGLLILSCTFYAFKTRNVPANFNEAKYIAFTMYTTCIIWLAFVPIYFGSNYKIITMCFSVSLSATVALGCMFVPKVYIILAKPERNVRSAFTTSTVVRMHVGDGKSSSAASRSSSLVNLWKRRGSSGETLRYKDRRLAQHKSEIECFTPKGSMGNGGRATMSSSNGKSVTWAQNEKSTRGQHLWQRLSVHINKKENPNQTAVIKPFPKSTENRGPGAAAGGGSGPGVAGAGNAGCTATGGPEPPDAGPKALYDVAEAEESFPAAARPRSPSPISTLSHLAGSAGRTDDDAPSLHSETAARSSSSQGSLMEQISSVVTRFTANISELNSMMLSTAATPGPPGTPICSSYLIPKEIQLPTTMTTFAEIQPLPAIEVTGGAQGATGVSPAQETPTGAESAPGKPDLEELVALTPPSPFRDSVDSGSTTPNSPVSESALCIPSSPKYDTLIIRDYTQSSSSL

| EC50 (mGluR5 [1]) [nM] | EC50 (mGluR5 [2]) [µM] | Compound |
| --- | --- | --- |
| 108 ± 41 |  | O=C(c1ccc(F)cc1)N1CCC[C@H](c2nc(-c3ccc(F)cc3)no2)C1 [ADX47273] |
|  | 8 ± 1.6 | NC(C(=O)O)c1cc(O)cc(O)c1 (centres unmarked) [DHPG] |
